Experimental data: patent US10441663B2, “Methods for treating cancer” (Bicycle Therapeutics Limited, priority 2016, dated 2019)
*1 amine or outer side, *2 acyl side, *3 side chain or, on linkers, in order; H or OH if unused. Where a SMILES comes first, the peptide text is derived from it. Bridges are numbered along the chain shown (N, C = ends). [ ]: non-standard residue; d: D form. 1Nal = N[C@@H](Cc1cccc2ccccc12)C(=O)O; TBMB = c1c(C[*:1])cc(C[*:3])cc1C[*:2]; Tle = CC(C)(C)[C@H](N)C(=O)O; βAla = NCCC(=O)O; Sar = CNCC(=O)O

Tests used:
catalytic domain (MT1) = assay: Bicycle peptide binding to catalytic domain
Experimental: (§1) A bicyclic constrained peptide binder (Bicycle) was identified that binds to the hemopexin domain of MT1 with an apparent Kd of approximately 2 nM. […] Bicycle drug conjugates (BDCs) with a variety of linkers and cytotoxic payloads were prepared which retained binding to MT1.

MMP15 = MMP15 (Homo sapiens, UniProt P51511); assay: Binding to related MMP family member
MMP16 = MMP16 (Homo sapiens, UniProt P51512); assay: Binding to related MMP family member
MMP1 [1] = biological target: T1, MMP1 (Homo sapiens, UniProt P03956); assay: Binding to related MMP family member
Experimental: as §1

MMP2 [2] = biological target: T2, MMP2 (Homo sapiens, UniProt P08253); assay: Binding to related MMP family member
Experimental: as §1

MMP24 = MMP24 (Homo sapiens, UniProt Q9Y5R2); assay: Binding to related MMP family member
Experimental: as §1

Pro-MMP1 = biological target: T3, Pro-MMP1 (Homo sapiens, UniProt P03956); assay: Binding to related MMP family member
T3 construct: MMP1, Pro-MMP1, MMP2

MT1 = MT1 (Homo sapiens, UniProt P50281); assay: Effect on catalytic activity of the protease in vitro; type: biochemical
Experimental: as §1

MMP1 [3] = biological target: T1, MMP1; assay: Effect on related MMP catalytic activity; type: biochemical; conditions: in vitro
Experimental: as §1

MMP2 [4] = biological target: T2, MMP2; assay: Effect on related MMP catalytic activity; type: biochemical; conditions: in vitro
Experimental: as §1

MMP9 = MMP9 (Homo sapiens, UniProt P14780); assay: Effect on related MMP catalytic activity; type: biochemical; conditions: in vitro
Experimental: as §1

[5] = system: cell migration or invasion; assay: Effect on cell migration or invasion; type: cell-based; conditions: in vitro
Experimental: as §1

T1 sequence (P03956 100-469, species assumed): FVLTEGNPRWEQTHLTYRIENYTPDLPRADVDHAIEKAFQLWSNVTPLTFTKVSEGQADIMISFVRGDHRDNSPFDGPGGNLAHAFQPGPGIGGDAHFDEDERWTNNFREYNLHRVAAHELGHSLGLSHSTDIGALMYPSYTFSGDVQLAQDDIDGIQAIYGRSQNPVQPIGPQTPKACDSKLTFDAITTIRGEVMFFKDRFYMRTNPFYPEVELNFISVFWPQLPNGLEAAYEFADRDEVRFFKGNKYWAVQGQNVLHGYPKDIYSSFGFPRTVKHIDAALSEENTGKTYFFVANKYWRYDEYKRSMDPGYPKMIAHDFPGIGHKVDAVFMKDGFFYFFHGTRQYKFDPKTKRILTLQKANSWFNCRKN
T2 sequence (P08253 110-660, species assumed): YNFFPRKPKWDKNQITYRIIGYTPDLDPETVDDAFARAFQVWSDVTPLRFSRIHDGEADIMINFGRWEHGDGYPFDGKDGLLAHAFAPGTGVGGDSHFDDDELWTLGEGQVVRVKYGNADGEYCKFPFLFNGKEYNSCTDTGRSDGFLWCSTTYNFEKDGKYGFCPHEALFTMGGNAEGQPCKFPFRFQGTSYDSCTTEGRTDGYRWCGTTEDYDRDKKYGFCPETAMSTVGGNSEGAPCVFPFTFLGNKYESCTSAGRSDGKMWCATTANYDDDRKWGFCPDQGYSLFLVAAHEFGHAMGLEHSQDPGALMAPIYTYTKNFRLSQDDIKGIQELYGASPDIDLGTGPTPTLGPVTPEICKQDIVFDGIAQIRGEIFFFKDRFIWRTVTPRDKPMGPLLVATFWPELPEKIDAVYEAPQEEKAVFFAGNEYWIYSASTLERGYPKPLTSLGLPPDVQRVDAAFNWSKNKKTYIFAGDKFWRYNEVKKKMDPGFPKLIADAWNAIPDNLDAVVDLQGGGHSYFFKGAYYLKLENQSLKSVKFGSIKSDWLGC
T3 sequence (P03956 20-469 limits assumed): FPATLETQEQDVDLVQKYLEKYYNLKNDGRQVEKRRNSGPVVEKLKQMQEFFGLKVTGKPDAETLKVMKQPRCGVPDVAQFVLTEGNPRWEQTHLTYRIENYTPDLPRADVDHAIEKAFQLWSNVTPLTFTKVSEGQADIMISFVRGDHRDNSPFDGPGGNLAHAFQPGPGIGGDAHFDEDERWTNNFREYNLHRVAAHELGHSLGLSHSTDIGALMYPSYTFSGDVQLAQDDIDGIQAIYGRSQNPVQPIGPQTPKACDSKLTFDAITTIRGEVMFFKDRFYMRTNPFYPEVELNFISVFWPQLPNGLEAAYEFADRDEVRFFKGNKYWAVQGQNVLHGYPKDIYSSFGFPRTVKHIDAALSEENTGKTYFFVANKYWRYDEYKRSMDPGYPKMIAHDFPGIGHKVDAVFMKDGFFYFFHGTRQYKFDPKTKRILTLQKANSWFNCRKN
MMP16, sequence (P51512 120-607, species assumed): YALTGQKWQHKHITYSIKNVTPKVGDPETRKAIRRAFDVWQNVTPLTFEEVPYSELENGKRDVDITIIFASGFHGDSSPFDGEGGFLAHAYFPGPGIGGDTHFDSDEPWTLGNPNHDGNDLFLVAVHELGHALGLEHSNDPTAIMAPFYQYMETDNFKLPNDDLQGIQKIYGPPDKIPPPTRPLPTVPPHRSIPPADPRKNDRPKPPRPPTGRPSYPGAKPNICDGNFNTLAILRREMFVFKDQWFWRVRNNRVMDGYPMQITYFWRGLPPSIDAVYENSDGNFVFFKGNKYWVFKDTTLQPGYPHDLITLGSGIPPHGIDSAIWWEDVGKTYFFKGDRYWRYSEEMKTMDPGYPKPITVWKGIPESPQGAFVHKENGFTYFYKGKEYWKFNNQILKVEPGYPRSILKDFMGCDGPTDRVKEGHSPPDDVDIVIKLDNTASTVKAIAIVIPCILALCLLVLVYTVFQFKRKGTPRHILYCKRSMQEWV
MMP24, sequence (Q9Y5R2 156-645, species assumed): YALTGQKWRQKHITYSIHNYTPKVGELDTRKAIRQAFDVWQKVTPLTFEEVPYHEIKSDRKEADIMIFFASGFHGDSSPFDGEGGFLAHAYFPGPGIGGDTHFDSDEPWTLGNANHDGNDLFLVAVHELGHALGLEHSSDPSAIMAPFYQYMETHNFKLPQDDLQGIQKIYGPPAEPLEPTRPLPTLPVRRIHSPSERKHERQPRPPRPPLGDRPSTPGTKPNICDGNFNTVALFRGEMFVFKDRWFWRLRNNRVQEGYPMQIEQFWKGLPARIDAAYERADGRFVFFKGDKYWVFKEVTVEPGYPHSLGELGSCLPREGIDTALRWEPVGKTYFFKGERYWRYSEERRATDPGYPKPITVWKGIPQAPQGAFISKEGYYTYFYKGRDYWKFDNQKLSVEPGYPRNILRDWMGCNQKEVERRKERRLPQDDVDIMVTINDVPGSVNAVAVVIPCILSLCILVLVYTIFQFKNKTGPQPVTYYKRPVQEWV
MMP15, sequence (P51511 132-669, species assumed): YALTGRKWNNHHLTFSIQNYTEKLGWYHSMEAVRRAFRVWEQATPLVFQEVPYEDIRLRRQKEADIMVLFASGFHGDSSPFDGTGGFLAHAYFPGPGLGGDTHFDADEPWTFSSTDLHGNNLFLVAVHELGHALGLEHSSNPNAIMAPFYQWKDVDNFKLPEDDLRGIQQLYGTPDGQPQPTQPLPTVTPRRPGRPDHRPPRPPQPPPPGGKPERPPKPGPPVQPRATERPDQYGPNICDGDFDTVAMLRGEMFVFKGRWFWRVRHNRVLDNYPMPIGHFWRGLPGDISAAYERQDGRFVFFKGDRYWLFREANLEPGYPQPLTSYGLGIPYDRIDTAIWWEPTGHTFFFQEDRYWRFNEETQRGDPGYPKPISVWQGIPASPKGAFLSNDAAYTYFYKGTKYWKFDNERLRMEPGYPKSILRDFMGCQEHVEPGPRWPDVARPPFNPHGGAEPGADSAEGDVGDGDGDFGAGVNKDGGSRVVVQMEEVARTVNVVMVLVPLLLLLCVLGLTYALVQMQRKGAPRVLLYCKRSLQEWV
MMP9, sequence (P14780 94-707, species assumed): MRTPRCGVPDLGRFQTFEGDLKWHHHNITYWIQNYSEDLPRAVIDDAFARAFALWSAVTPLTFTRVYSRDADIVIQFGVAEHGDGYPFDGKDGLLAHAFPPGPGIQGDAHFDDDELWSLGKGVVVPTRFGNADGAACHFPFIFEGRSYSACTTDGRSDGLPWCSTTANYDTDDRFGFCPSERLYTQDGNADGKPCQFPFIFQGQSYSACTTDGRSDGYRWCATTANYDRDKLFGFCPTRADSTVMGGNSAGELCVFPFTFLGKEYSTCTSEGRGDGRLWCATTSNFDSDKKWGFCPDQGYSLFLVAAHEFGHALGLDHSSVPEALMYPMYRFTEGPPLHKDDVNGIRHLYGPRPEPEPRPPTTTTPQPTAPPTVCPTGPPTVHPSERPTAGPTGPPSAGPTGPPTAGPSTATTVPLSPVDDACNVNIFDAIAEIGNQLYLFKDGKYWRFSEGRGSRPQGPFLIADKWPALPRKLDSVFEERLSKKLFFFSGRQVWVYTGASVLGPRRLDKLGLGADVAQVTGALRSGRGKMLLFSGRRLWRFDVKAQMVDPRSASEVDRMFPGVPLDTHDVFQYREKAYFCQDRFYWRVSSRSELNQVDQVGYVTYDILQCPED

Structure (SMILES): C[C@H](NC(=O)CN(C)C(=O)CN(C)C(=O)CN(C)C(=O)CN(C)C(=O)CN(C)C(=O)CN(C)C(=O)CN(C)C(=O)CN(C)C(=O)CN(C)C(=O)CN(C)C(=O)CCN)C(=O)N[C@H]1CSCc2cc3cc(c2)CSC[C@H](NC(=O)[C@@H](C)NC(=O)[C@H](Cc2cccc4ccccc24)NC(=O)[C@H](CCC(=O)O)NC(=O)[C@H](CC(N)=O)NC(=O)[C@@H](C)NC1=O)C(=O)N[C@@H](CCC(=O)O)C(=O)N[C@@H](CC(=O)O)C(=O)N[C@@H](Cc1ccccc1)C(=O)N[C@@H](Cc1ccc(O)cc1)C(=O)N[C@@H](CC(=O)O)C(=O)N[C@@H](C(C)(C)C)C(=O)N[C@H](C(N)=O)CSC3 [N241] (H-[βAla][Sar][Sar][Sar][Sar][Sar][Sar][Sar][Sar][Sar][Sar]AC[dA]NE[1Nal][dA]CEDFYD[Tle]C-NH2; linker 13-19-26 via TBMB; N-terminus and C-terminus assumed)
- binding (catalytic domain (MT1)): no binding
- binding (MMP15): no binding
- binding (MMP16): no binding
- binding (MMP1 [1]): no binding
- binding (MMP2 [2]): no binding
- binding (MMP24): no binding
- binding (Pro-MMP1): no binding
- impact on catalytic activity (MT1): no direct impact
- impact on catalytic activity (MMP1 [3]): no direct impact
- impact on catalytic activity (MMP2 [4]): no direct impact
- impact on catalytic activity (MMP9): no direct impact
- impact on cell migration or invasion [5]: no direct impact
